This data set in a line: photoluminescence quantum yield (fraction); solvent given as SMILES.

In the case of `COC(=O)c1ccc2ccc3cccc4ccc1c2c34`, the photoluminescence quantum yield (in C1CCOC1) worked out at 0.68; the photoluminescence quantum yield (in CC#N) came to 0.79; the photoluminescence quantum yield (in CCCCCC) is 0.63; the photoluminescence quantum yield (in CCO) was 0.81; the photoluminescence quantum yield (in CN(C)C=O) was 0.74; the photoluminescence quantum yield (in CO) turned out to be 0.69. Also, the photoluminescence quantum yield reads like this: (in Cc1ccccc1) 0.76; (in ClCCl) 0.56.
`Cc1ccc2cc3cc(C)ncc3cc2c1`: where the note is “in CCO”, the photoluminescence quantum yield turned out to be 0.48.
Take `COc1cc(/C=C/c2ccccn2)c(OC)cc1C=O`: the photoluminescence quantum yield by setting is: (in C1CCOC1) 0.19; (in CC#N) 0.24; (in CN(C)C=O) 0.21; (in Cc1ccccc1) 0.16; (in ClCCl) 0.36.
In turn, `CSc1sc(C(C)=O)c2nn[nH]c(=O)c12` came in with a photoluminescence quantum yield (in C1CCOC1) of 0.015; a photoluminescence quantum yield (in CC#N) of 0.017; a photoluminescence quantum yield (in CCO) of 0.0091; a photoluminescence quantum yield (in CN(C)C=O) of 0.0047; a photoluminescence quantum yield (in CO) of 0.0077; a photoluminescence quantum yield (in CS(C)=O) of 0.0048.
For the compound `CN(C)c1ccc(/C=C/c2nc3ccc(N(C)C)cc3oc2=O)cc1`, the photoluminescence quantum yield runs as follows: (in C1CCCCC1) 0.57; (in C1COCCO1) 0.59; (in CC#N) 0.21; (in CC(C)=O) 0.36; (in CC(O)CO) 0.024; (in CCCCCCC) 0.56. The photoluminescence quantum yield was 0.016 (in CCO); 0.52 (in CCOC(C)=O); 0.22 (in CN(C)C=O); 0.04 (in CS(C)=O); 0.57 (in Cc1ccccc1); 0.52 (in ClC(Cl)Cl). In addition, the photoluminescence quantum yield by setting is: (in ClCCl) 0.55; (in OCC(O)CO) 0.019.
As to `C=Cc1cccc(OC)c1`, the photoluminescence quantum yield was determined as 0.32 (in C1CCCCC1) and 0.28 (in CC#N).
As to `COc1ccc(-c2cnc(-c3ccccc3)o2)cc1OC`, the photoluminescence quantum yield (in ClCCl) was 0.19.
On to `CCCCCCc1ccc(-n2c3c4cccc(OC)c4nc(-c4ccc(OC)cc4)c3c3c2c2c(-c4ccc(OC)cc4)nc4c(OC)cccc4c2n3-c2ccc(CCCCCC)cc2)cc1`, for which, under “in ClC(Cl)Cl”, the photoluminescence quantum yield was found to be 0.042.
Where the note is “in O”, `Clc1ccc2cc3cccc[n+]3cc2c1` came in with a photoluminescence quantum yield of 0.2.
Still for that read-out and setting: to `O=C(O)c1ccccc1` belongs 0.001.
`CCn1c2ccccc2c2cc(/C=C/c3cccc[n+]3CCCS(=O)(=O)[O-])ccc21`: the photoluminescence quantum yield runs as follows: (in C1CCOC1) 0.09; (in CC#N) 0.03; (in CC(C)=O) 0.03; (in Cc1ccccc1) 0.06.
In the case of `COC(=O)[C@@H]1C(=O)Oc2ccccc2[C@H]1c1c[nH]c2ccccc12`, the photoluminescence quantum yield (in CS(C)=O) stood at 0.0094.
As to `CCCCCCCCOc1ccc(-c2c3c4n(c(-c5ccc(OCCCCCCCC)cc5)c3c3n2[B-](c2ccccc2)(c2ccccc2)[n+]2c(ccc5cc(C(C)(C)C)ccc52)C=3C#N)[B-](c2ccccc2)(c2ccccc2)[n+]2c(ccc3cc(C(C)(C)C)ccc32)C=4C#N)cc1`, the photoluminescence quantum yield (in ClC(Cl)Cl) was determined as 0.53.
For the compound `CCN1C(=CC2=C([O-])C(=Cc3sc4ccccc4[n+]3CC)C2=O)Sc2ccccc21`, the photoluminescence quantum yield (in CC(C)O) came to 0.13.
As for `CCCN1/C(=C/C=C/C=C/C2=[N+](CCC)c3ccccc3C2(C)C)C(C)(C)c2ccccc21`, the photoluminescence quantum yield worked out at 0.27 (in CO), 0.55 (in CS(C)=O) and 0.05 (in O).
For the compound `O=c1c2ccccc2nc2n1[B-](F)(F)[n+]1ccccc1-2`, the photoluminescence quantum yield reads like this: (in CC#N) 0.78; (in ClCCl) 0.99.
As for `CC1=[N+]2C(=C(c3ccc(C=O)cc3)c3ccc(C)n3[B-]2(F)F)C=C1c1cc2n(c1)[B-](F)(F)[N+]1=CC=CC1=C2c1c(C)cc(C)cc1C`, the photoluminescence quantum yield by setting is: (in C1CCCCC1) 0.92; (in CCOC(C)=O) 0.2.
As to `F[B-]1(F)OC(c2ccc(N3CCCC3)cc2)=Cc2cccc[n+]21`, the photoluminescence quantum yield (in ClC(Cl)Cl) was found to be 0.542.
Regarding `CC[C@H](C)COc1ccc(C2=C3C(C)=C(I)C(C)=[N+]3[B-](F)(F)n3c(C)c(I)c(C)c32)cc1`, where the note is “in ClCCl”, the photoluminescence quantum yield is 0.06.
In turn, `c1ccc2sc(-c3ccc(-c4nnc(-c5ccc(-c6nnc(-c7ccc(-c8cc9ccccc9s8)s7)o6)cc5)o4)s3)cc2c1` displayed a photoluminescence quantum yield (in ClC(Cl)Cl) of 0.61.
As for `CCC1=C(C)C2=Cc3cccn3[B-](F)(F)[N+]2=C1C`, the photoluminescence quantum yield (in C1CCCCC1) stood at 0.7; the photoluminescence quantum yield (in CC(C)=O) was determined as 0.65; the photoluminescence quantum yield (in CCO) was found to be 0.69; the photoluminescence quantum yield (in CCOC(C)=O) came to 0.69; the photoluminescence quantum yield (in CO) was 0.6; the photoluminescence quantum yield (in OCC(F)(F)F) was determined as 0.49.
`CCOC(CN1C(=O)C2=C(c3cccs3)N(CC(OCC)OCC)C(=O)C2=C1c1cccs1)OCC` yielded a photoluminescence quantum yield (in ClC(Cl)Cl) of 0.41.
In the case of `CCOC(=O)C1=CN(Cc2ccccc2)C=C(C(=O)OCC)C1`, the photoluminescence quantum yield reads like this: (in C1CCOC1) 0.31; (in CO) 0.24.
For the compound `O=C([O-])c1ccc(C(=O)[O-])c2cc3ccccc3cc12`, the photoluminescence quantum yield (in CN(C)C=O) was 0.066.
Regarding `O=c1oc2ccc(Br)cc2cc1-c1cc2cc(Br)ccc2o1`, for the setting “in CS(C)=O”, the photoluminescence quantum yield came out at 0.2.
`CN(C)c1ccc(C2=Nc3sc4cc(Cl)ccc4[n+]3[B-](F)(F)O2)cc1`: the photoluminescence quantum yield reads like this: (in C1CCOC1) 0.74; (in CC#N) 0.12; (in CC(C)=O) 0.21; (in Cc1ccccc1) 0.91; (in ClCCl) 0.78.
`CCn1c(-c2ccc(-c3cccc4ccccc34)cc2)c(-c2ccc3ccccc3c2)c(-c2ccc3ccccc3c2)c1-c1ccc(-c2cccc3ccccc23)cc1` returned a photoluminescence quantum yield (in CCOC(C)=O) of 0.35.
`CC1(C)c2ccccc2-c2sc3ccccc3c21` gave a photoluminescence quantum yield (in ClCCl) of 0.11.
On to `CC1(C)C(/C=C/C2=C(Oc3ccc(CCN=C=S)cc3Br)C(=C/C=C3/N(CCCS(=O)(=O)[O-])c4ccccc4C3(C)C)/CCC2)=[N+](CCCS(=O)(=O)[O-])c2ccccc21`, for which, under “in CO”, the photoluminescence quantum yield worked out at 0.14.
Regarding `OB1c2ccccc2Nc2ccccc21`, the photoluminescence quantum yield (in ClCCl) turned out to be 0.03.
Consider `c1ccc(N2c3ccc4ccccc4c3-c3c4ccccc4nc[n+]3[B-]2(c2ccccc2)c2ccccc2)cc1`, for which the photoluminescence quantum yield was found to be 0.07 (in C1CCC2CCCCC2C1); 0.06 (in C1CCCCC1); 0.06 (in CCCCCC); 0.02 (in CCOC(C)=O); 0.03 (in Cc1ccccc1); 0.01 (in ClC(Cl)Cl).
Regarding `Cn1cccc1-c1ccc(C#N)cc1`, the photoluminescence quantum yield is, setting by setting: (in C1CCOC1) 0.94; (in CC#N) 0.51; (in CCCCCC) 0.92; (in CCCCOCCCC) 1; (in CCOCC) 0.98.
`CC1(C)CC(/C=C/c2ccc(-n3cccn3)cc2)=CC(=C(C#N)C#N)C1` registered a photoluminescence quantum yield (in CCO) of 0.0001.
`Cc1cc(C)c(B2c3cc(C)ccc3N3c4ccc(C)cc4B(c4c(C)cc(C)cc4C)c4cc(C)cc2c43)c(C)c1`: the photoluminescence quantum yield is 0.889 (in Cc1ccccc1-c1cccc(Oc2cc3c4c(c2)Oc2cc(-c5ccccc5C)ccc2B4c2ccc(-c4ccccc4C)cc2O3)c1) and 0.79 (in ClCCl).

For the origin of these results see the Deep4Chem optical property database.
